# Reference: ChEMBL document CHEMBL1201862, “PubChem BioAssay data set” (2004)
# The source made the active and inactive calls.
# Key:
# [1] = Luminescence Cell-Based Dose Confirmation HTS to Identify Activators of 5'UTR Stem-Loop Driven Alpha-Synuclein mRNA Translation in H4 Neuroglioblastoma Cells. [Related pubchem assays: 1829 (Project Summary), 1814 (Primary HTS)]; assay type: functional
# [2] = Luminescence Cell-Based Dose Response HTS to Identify Activators of Luciferase Translation or Activity in H4 […] Cells. [Related pubchem assays: 1829 (Project Summary), 1814 (Primary HTS)]; assay type: functional
# H4 = experiment: Luminescence Cell-Based Dose Response HTS to Identify Activators of 5'UTR Stem-Loop Driven Prion Protein mRNA Translation in H4 Neuroglioblastoma Cells. [Related pubchem assays: 1829 (Project Summary), 1814 (Primary HTS)]; assay type: functional; details: Homo sapiens
# Cytochrome P450 2C19 = Cytochrome P450 2C19 (Homo sapiens, UniProt P33261); experiment: Cytochrome panel assay with activity outcomes. Panel member name: p450-cyp2c19 Compounds with AC50 equal or less than 10 uM are considered active; assay type: functional
# Sequence of Cytochrome P450 2C19 (P33261 whole entry): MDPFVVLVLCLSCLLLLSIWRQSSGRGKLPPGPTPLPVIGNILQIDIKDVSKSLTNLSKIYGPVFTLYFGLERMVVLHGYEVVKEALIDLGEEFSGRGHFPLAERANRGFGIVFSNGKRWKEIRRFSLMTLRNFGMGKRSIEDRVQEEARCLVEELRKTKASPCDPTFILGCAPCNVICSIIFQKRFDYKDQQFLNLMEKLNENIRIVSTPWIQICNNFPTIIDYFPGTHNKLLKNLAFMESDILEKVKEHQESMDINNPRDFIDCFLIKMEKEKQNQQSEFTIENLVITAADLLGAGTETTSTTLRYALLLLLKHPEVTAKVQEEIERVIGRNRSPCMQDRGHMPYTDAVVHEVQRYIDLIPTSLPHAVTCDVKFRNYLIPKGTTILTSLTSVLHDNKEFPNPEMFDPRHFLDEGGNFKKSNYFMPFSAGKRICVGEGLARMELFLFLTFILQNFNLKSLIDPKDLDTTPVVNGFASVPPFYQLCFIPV
# Cytochrome P450 3A4 = Cytochrome P450 3A4 (Homo sapiens, UniProt P08684);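 also: CYP3A4 tested as one member of a cytochrome P450 panel screen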
# Sequence of Cytochrome P450 3A4 (P08684 whole entry): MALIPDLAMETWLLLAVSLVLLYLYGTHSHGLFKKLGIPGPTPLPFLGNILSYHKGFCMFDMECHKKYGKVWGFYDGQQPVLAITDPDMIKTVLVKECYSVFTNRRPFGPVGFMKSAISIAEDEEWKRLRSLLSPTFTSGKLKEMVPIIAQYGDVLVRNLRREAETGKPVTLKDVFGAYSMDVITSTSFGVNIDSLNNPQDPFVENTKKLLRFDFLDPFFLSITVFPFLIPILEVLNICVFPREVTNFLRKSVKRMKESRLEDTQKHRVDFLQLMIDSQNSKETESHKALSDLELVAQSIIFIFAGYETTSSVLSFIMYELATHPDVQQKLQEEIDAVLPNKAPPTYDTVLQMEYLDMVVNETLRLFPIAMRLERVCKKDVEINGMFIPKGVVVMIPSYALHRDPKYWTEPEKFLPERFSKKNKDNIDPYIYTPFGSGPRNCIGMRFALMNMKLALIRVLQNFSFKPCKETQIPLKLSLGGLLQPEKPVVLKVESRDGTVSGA
# Cytochrome P450 2C9 = Cytochrome P450 2C9 (Homo sapiens, UniProt P11712)
# Sequence of Cytochrome P450 2C9 (P11712 whole entry): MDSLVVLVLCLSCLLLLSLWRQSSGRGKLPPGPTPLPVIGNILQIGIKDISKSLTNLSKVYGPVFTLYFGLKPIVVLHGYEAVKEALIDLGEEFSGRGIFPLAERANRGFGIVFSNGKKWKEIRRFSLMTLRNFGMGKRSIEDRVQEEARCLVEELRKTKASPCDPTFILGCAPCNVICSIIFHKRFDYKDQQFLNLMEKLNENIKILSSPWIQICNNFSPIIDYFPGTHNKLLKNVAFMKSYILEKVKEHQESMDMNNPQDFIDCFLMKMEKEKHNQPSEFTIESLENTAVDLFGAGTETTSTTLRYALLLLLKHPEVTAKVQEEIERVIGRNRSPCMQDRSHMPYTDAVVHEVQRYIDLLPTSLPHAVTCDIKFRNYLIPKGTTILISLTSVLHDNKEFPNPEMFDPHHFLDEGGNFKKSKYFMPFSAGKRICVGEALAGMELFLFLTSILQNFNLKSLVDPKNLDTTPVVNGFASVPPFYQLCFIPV
# [3] = inhibitors of firefly luciferase expression or activity, dose response, H4 neuroglioma cells, luminescence (AID 1990); assay type: functional, cell-based
# [4] = Luminescence Cell-Based Dose Response HTS to Identify Inhibitors of 5'UTR Stem-Loop Driven Prion Protein mRNA Translation in H4 Neuroglioblastoma Cells. [Related pubchem assays: 1827 (Project Summary), 1813 (Primary HTS)]; assay type: functional
# [5] = inhibitors of SNCA 5'UTR-driven reporter translation, confirmation, H4 neuroglioma cells, luminescence (AID 1988); assay type: functional, cell-based
# INS1 = experiment: beta cell apoptosis inhibitors, cytokine rescue, dose response, luminescence, retest (AID 449756); assay type: functional, cell-based; details: Rattus norvegicus;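 also: cell death triggered by IL-1 beta plus TNF-alpha plus IFN-gamma mixture; protective hits raise ATP signal compared with cytokine alone wells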
# Cytochrome P450 1A2 = target: T1, Cytochrome P450 1A2 (Homo sapiens, UniProt P05177);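 also: PubChem cytochrome P450 panel assay, CYP1A2 panel member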
# T1 sequence (P05177 whole entry): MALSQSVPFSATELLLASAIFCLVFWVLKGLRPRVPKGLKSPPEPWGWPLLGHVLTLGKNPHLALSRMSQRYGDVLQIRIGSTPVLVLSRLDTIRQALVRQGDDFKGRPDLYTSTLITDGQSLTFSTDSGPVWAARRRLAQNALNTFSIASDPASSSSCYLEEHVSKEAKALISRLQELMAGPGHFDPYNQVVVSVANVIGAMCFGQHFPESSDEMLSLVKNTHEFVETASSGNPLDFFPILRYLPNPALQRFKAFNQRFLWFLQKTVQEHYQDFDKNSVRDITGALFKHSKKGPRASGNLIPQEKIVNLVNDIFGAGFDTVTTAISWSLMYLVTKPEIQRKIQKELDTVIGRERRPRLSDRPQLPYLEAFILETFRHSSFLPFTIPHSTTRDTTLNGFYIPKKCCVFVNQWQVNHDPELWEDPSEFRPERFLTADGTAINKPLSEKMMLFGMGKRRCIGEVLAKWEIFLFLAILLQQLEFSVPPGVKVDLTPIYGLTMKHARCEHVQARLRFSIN
# [6] = HEp-2 cell cytotoxicity, dose response, cytotoxicity control for RSV inhibitor project, HTS (AID 2410); assay type: functional; details: human respiratory syncytial virus
# [7] = target: T2, Corticotropin-releasing factor receptor 2/Corticotropin-releasing factor-binding protein (Homo sapiens, UniProt P24387+Q13324); experiment: activators of CRF receptor 2 with binding protein – uHTS hits, confirmation (AID 602473); assay type: functional; details: read-out: EC50_Mean
# T2 sequence (Q13324 whole entry): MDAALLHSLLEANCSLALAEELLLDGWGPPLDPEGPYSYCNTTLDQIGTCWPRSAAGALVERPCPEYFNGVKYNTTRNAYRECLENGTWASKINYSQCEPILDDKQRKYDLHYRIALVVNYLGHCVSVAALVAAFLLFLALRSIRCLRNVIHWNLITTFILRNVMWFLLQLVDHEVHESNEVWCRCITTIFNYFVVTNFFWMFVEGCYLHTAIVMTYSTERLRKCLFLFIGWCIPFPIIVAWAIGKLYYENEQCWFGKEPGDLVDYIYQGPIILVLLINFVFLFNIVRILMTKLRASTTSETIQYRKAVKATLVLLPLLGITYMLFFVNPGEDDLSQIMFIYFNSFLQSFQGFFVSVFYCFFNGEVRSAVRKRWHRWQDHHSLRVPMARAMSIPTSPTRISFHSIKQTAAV
# T2 sequence (P24387 whole entry): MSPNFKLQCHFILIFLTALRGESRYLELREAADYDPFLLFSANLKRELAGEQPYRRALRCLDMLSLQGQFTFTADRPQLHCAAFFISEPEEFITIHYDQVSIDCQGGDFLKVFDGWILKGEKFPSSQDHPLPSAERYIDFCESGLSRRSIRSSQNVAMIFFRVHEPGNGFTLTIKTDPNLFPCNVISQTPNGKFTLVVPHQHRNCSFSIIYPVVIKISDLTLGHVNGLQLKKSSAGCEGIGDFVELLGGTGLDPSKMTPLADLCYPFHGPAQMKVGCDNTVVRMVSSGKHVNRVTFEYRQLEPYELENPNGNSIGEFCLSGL
# [8] = inhibitors of intracellular T. cruzi replication, confirmation, NIH3T3 host cells, beta-gal luminescence (AID 2044); assay type: functional, cell-based;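 also: intracellular parasites grown in NIH/3T3 mouse fibroblasts as host cells; luminescent beta-galactosidase reporter signal from transgenic T. cruzi replicating inside host cells; inhibitors lower the luminescence signal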
# [9] = cytotoxicity toward NIH3T3 fibroblasts, dose response, counter-screen, cell-based, ATP luminescence, mouse fibroblasts (AID 2010); assay type: functional;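 also: cells exposed to compound for about 90 hours before reading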
structure (smiles),measurement,setting,value
COC(=O)c1ccc(CSc2nncn2C)cc1,EC50,[1],9.45 µM (active)
same,EC50,[2],54.3 µM (active)
same,EC50,H4,11.3 µM (active)
Cc1ccccc1NC(S)=NN1CCN(C)CC1,AC50,Cytochrome P450 2C19; read-out: AC50,25.1 µM (inconclusive)
COc1ccc2[nH]c3c(NCCCN4CCCC4=O)ncnc3c2c1,AC50,Cytochrome P450 2C19; read-out: AC50,39.8 µM (inconclusive)
same,AC50,Cytochrome P450 3A4,17.8 µM (inconclusive)
same,AC50,Cytochrome P450 2C9,3.98 µM (inconclusive)
Brc1ccccc1C1=Nn2c(nnc2-c2ccccc2)SC1,EC50,[3],15.5 µM (active)
same,EC50,[4],> 120 µM (not active)
same,EC50,[5],38.4 µM (active)
O=C(CSc1ccc(Cl)cc1)Nc1ccc(N2CCN(c3ccccc3)CC2)c(F)c1,AC50,Cytochrome P450 2C19; read-out: AC50,3.55 µM (inconclusive)
C#CCOCCOCCOCCNc1nc(N2CCN(C(=O)CCCCCCCCCCNC(=O)[C@H](CCCCN)n3cc(C[C@@H](C)CC)nn3)CC2)nc(N2CCN(C(=O)CCCCCCCCCCNC(=O)[C@@H]([C@H](C)O)n3cc(C)nn3)CC2)n1,AC50,INS1,4.74 µM (active)
O=C(O)c1cc(O)c2c(Cl)cc(Cl)cc2n1,AC50,Cytochrome P450 2C19,inconclusive
same,AC50,Cytochrome P450 1A2,39.8 µM (inconclusive)
CC1CN(CC(O)COC(c2ccc(Cl)cc2)c2ccc(Cl)cc2)CC(C)O1 (stereo unspecified),AC50,INS1,11.9 µM (active)
COc1ccc(NC(=O)C(c2ccc(OC)cc2)N(C)C(=O)CNC(C)=O)cc1 (stereo unspecified),AC50,Cytochrome P450 2C19,inconclusive
COc1ccccc1NC(=O)CC(=O)CSc1nnc(-c2ccc(C)cc2)n1C,CC50,[6],17.7 µM (active)
CCOC(=O)c1cc([N+](=O)[O-])sc1NC(=O)c1ccc(S(=O)(=O)N2CC3(C)CC2CC(C)(C)C3)cc1 (stereo unspecified),EC50,[7],0.793 µM (active)
CCN(CC)CCN1C(=O)c2oc3ccccc3c(=O)c2C1c1ccc(F)cc1 (stereo unspecified),EC50,[1],> 120 µM (not active)
same,EC50,[2],14.1 µM (active)
same,EC50,H4,22.4 µM (active)
O=c1cc(-c2ccccc2Cl)oc2c(NS(=O)(=O)c3cccs3)ccc(O)c12,CC50,[6],22 µM (active)
CSc1ccc(S(=O)(=O)Nc2ccc(N3CCOCC3)c(Cl)c2)cc1,AC50,INS1,29.8 µM (active)
CC(=O)C(C(C)=O)c1cc(NS(=O)(=O)c2ccccc2)ccc1NS(=O)(=O)c1ccccc1,EC50,[7],9.35 µM (active)
Cc1nn(-c2ccccc2)c2sc(C(=O)NC3CC3)cc12,EC50,[1],> 120 µM (not active)
same,EC50,[2],48.3 µM (active)
same,EC50,H4,27.9 µM (active)
N#Cc1cccc(NC(=O)N2CCCC3(CCN(C(=O)Oc4ccccc4)CC3)C2)c1,AC50,Cytochrome P450 2C19; read-out: AC50,25.1 µM (inconclusive)
same,AC50,Cytochrome P450 1A2,15.8 µM (inconclusive)
same,AC50,Cytochrome P450 3A4,12.6 µM (inconclusive)
same,AC50,Cytochrome P450 2C9,25.1 µM (inconclusive)
O=c1c(-c2ccc(F)cc2)nc2cnc(N3CCOCC3)nc2n1CCc1ccccc1,AC50,Cytochrome P450 2C19; read-out: AC50,39.8 µM (inconclusive)
same,AC50,Cytochrome P450 1A2,25.1 µM (inconclusive)
COc1cc(-n2ccnc2SC)c(Cl)cc1Cl,AC50,Cytochrome P450 2C19; read-out: AC50,7.08 µM (inconclusive)
same,AC50,Cytochrome P450 1A2,15.8 µM (inconclusive)
same,AC50,Cytochrome P450 2C9,39.8 µM (inconclusive)
COC(=O)[C@@]1(Cc2ccccc2)[C@H]2c3cc(C(=O)N(C)C)n(Cc4ccc(S(C)(=O)=O)cc4)c3C[C@H]2CN1C(=O)c1ccccc1,AC50,Cytochrome P450 2C19; read-out: AC50,39.8 µM (inconclusive)
same,AC50,Cytochrome P450 1A2,31.6 µM (inconclusive)
same,AC50,Cytochrome P450 2C9,25.1 µM (inconclusive)
O=C(Cn1cc(C(F)(F)F)cc(Cl)c1=O)NCc1ccccc1,EC50,[1],84.7 µM (active)
same,EC50,[2],31.6 µM (active)
same,EC50,H4,18.5 µM (active)
CCCc1cc(O)nc(SCC(=O)c2cc(C)n(C3CC3)c2C)n1,CC50,[6],43.1 µM (active)
N#Cc1cccc(Nc2c3c(nc4ccccc24)CCCC3)c1,CC50,[6],15.9 µM (active)
CCOc1ccc(S(=O)(=O)N2CCCCC2)c2ccccc12,EC50,[3],20.9 µM (active)
same,EC50,[4],> 120 µM (not active)
same,EC50,[5],> 120 µM (not active)
Cc1cccc(C(=O)NNC(=O)C(=O)NC(C)(C)C)c1,AC50,Cytochrome P450 2C19; read-out: AC50,11.2 µM (inconclusive)
COC(=O)C1=CN(C2CCCCC2)C=C(C(=O)OC)C1c1ccc2c(c1)OCO2,EC50,[3],15.8 µM (active)
same,EC50,[4],57.5 µM (active)
same,EC50,[5],> 120 µM (not active)
same,EC50,[8],1.56 µM (active)
same,EC50,[9],> 60 µM (inconclusive)
CC(C)NC(=O)c1c(O)c2cccc3c2n(c1=O)CCC3,CC50,[6],17.3 µM (active)
O=c1c(-c2ccc(Cl)cc2)cnc2n1CCS2,EC50,[1],13 µM (active)
same,EC50,[2],11.3 µM (active)
same,EC50,H4,13.7 µM (active)
O=C(CCN1C(=O)C2C3C=CC(C3)C2C1=O)N1CCN(c2cccc(Cl)c2)CC1 (stereo unspecified),AC50,Cytochrome P450 2C19; read-out: AC50,25.1 µM (inconclusive)
same,AC50,Cytochrome P450 2C9,11.2 µM (inconclusive)
CC(Oc1ccc(C(=O)c2ccccc2)cc1)C(=O)Nc1ccc(S(N)(=O)=O)cc1 (stereo unspecified),EC50,[7],8.21 µM (active)
CCO[C@@H]1OC(C(=O)Nc2ccccc2)=C[C@H](c2csc3ccccc23)[C@H]1CCCO,CC50,[6],22.4 µM (active)
CSc1nc2ccccc2n1CC(=O)Nc1cc(C(F)(F)F)ccc1N1CCOCC1,CC50,[6],42.4 µM (active)
NC1=C(c2nc3ccccc3[nH]2)C(=O)CN1c1ccccc1,EC50,[1],> 120 µM (not active)
same,EC50,[2],79.8 µM (active)
same,EC50,H4,6.44 µM (active)
Cc1cc[n+](C(C)C(=O)c2ccc(-c3ccccc3)cc2)cc1 (stereo unspecified),EC50,[8],3.33 µM (active)
same,EC50,[9],> 60 µM (not active)
same,AC50,INS1,4.05 µM (active)
CCOC(=O)CN1C(=O)C(Sc2n[nH]c(-c3ccc(C)cc3)n2)CCc2ccccc21 (stereo unspecified),EC50,[3],19.1 µM (active)
same,EC50,[4],> 120 µM (not active)
same,EC50,[5],> 120 µM (not active)
Clc1ccccc1Cn1nnc2c(N3CCOCC3)nc(C3CC3)nc21,EC50,[3],23.8 µM (active)
same,EC50,[4],> 120 µM (not active)
same,EC50,[5],27 µM (active)
Cc1nnc(SCC(=O)NC(=O)Nc2ccc3c(c2)OCCO3)n1N,EC50,[1],11.9 µM (active)
same,EC50,[2],32.8 µM (active)
same,EC50,H4,> 120 µM (not active)
Clc1ccc2c(c1)C1OCCC1C(c1ccco1)N2 (stereo unspecified),CC50,[6],33.4 µM (active)
CCOc1ccc(NS(=O)(=O)c2ccc(C(=O)NCC3(N(C)C)CCCCC3)cc2)cc1,EC50,[7],8.72 µM (active)
O=C(CCC1N=C2c3ccccc3N=C(SCc3ccc(Cl)cc3)N2C1=O)NCc1ccco1 (stereo unspecified),CC50,[6],25.4 µM (active)
C[C@]1(C(=O)O)[C@@H]2CC[C@@H](O2)[C@@]1(C)C(=O)O,AC50,Cytochrome P450 2C19,inconclusive
O=C(Nc1cccnc1)c1ccc(CN2CCc3ccccc3C2)cc1,EC50,[1],50.3 µM (active)
same,EC50,[2],28.6 µM (active)
same,EC50,H4,> 120 µM (not active)
Cc1sc2ncnc(Sc3nc4ccccc4s3)c2c1C,EC50,[1],> 120 µM (not active)
same,EC50,[2],> 120 µM (not active)
same,EC50,H4,> 120 µM (not active)
O=C(Nc1cc(Cl)ccc1O)C1CC(c2ccccc2Cl)=NO1 (stereo unspecified),CC50,[6],> 50 µM (active)
COc1ccc(-c2nc3c4c(ncn3n2)-c2ccccc2CC42CCCC2)cc1,EC50,[3],23 µM (active)
same,EC50,[4],> 120 µM (not active)
same,EC50,[5],14.7 µM (active)
